32 compounds from patent US8912209B2, “Rock inhibitors” (Amakem NV, priority 2010, dated 2014) can be followed below.

For this test, the target named is T1, ROCKα/ROCKII (Homo sapiens, UniProt O75116).
T1 construct: purchased Upstate Biotechnology 14-451
T1 sequence (O75116 whole entry): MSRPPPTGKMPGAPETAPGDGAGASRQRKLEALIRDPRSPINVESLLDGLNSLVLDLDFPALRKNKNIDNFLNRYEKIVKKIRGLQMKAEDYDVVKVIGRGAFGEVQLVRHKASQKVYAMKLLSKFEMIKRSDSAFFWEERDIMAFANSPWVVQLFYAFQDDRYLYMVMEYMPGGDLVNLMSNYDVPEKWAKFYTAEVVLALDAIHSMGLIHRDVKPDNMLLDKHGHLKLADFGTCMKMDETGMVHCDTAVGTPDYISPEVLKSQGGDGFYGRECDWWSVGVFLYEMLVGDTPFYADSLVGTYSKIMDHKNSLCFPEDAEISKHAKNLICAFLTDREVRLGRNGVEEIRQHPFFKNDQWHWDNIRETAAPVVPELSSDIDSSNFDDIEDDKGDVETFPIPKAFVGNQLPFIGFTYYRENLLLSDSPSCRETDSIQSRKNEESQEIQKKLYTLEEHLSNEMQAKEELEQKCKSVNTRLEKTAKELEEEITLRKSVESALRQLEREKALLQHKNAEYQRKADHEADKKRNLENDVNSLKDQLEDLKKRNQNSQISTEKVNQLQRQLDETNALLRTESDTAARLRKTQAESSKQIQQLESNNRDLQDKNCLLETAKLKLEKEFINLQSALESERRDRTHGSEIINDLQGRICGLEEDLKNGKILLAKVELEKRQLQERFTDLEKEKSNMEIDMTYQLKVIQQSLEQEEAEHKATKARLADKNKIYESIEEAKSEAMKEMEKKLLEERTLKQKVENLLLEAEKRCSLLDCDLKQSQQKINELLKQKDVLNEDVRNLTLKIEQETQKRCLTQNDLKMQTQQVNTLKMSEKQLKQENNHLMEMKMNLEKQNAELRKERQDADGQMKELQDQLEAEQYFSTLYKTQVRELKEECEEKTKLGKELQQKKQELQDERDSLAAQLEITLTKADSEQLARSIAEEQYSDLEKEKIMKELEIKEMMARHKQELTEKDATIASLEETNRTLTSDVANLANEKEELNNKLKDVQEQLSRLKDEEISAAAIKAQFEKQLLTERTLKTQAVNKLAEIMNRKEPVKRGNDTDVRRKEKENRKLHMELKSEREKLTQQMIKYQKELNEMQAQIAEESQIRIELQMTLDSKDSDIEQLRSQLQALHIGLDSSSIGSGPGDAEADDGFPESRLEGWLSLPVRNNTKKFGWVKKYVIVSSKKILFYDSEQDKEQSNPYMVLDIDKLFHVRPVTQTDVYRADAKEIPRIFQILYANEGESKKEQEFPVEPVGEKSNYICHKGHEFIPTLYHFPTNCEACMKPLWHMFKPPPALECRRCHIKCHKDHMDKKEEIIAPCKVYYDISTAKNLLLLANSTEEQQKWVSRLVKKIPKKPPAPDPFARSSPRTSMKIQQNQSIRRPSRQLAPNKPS
In words: ROCK inhibition, Method 2 fluorescence polarization (FP) assay, ROCK IMAP Kit. In kind it is biochemical. To be noted: 10 μM ATP, read-out: IC50 Meth. 2. The method, then: The inhibition assays were performed with a fluorescence polarization (FP) assay using the commercially available ROCK IMAP Kit from Molecular Devices (Product ID. No. R8093), essentially in accordance with the protocol supplied by the manufacturer. […] The enzyme mix ROCKα/ROCKII was obtained from Upstate Biotechnology (Product ID No 14-451).
In summary, all compounds were screened in the wells of a 384 well plate for enzymatic inhibition with concentrations varying from 100 μM to 0.3 nM using a stepwise 3 (or 2)-fold dilution.
To perform the assay, 1 μl of a solution of the compound to be tested in DMSO (at each concentration) was added to 2 μl of a solution of the enzyme in 10 mM Tris-HCl, 10 mM MgCl2, 0.1% BSA, 0.05% NaN3, pH 7,2. The final concentration of the enzyme was 2.6 nM.
After incubating for 30 minutes at RT, 2 μl of a mixture of ATP and the protein substrate in 10 mM Tris-HCl, 10 mM MgCl2, 0.1% BSA, 0.05% NaN3, pH 7.2 was added. The final concentration of the ATP was 10 μM and final concentration of protein substrate was 0.2 μM.
After incubating for 60 minutes at RT, 12 μl of the IMAP Binding Solution (mix of the IMAP Binding Buffer A (1×) and the IMAP Binding Reagent (from the ROCK IMAP kit)) was added.
The mixture thus obtained (total volume: 17 μl) was incubated for 60 minutes at RT, upon which the fluorescence polarization was measured using an automated plate reader (Perkin Elmer, Model Envision 2100-0010 HTS) with FP filters: excitation filter FITC FP 480 and emission filters FITC FP P-pol 535 and FITC FP S-pol 535 (Perkin-Elmer). The results were fitted to a curve using the XL-Fit algorithm and IC50 values were calculated for each fitted curve, again using the XL-Fit algorithm.
(In general: Polarisation of emitted light reports the rotation of a fluorescent probe.)
Usually IC50 stands for the concentration that gives 50% inhibition. Regarding “2′-(1-Amino-ethyl)-5′- (pyridin-4-ylcarbamoyl)- biphenyl-3-carboxylic acid 2-(toluene-4-sulfonyl)-ethyl ester [Compound 89]”, the IC50 was 100 to 1000 nM. As for “2′-(1-Amino-ethyl)-5′- (pyridin-4-ylcarbamoyl)- biphenyl-3-carboxylic acid 4-methylsulfanyl-phenyl ester [Compound 86]”, the figure is less than 100 nM; as for `COC(=O)c1cccc(-c2cc(C(=O)Nc3ccncc3)ccc2C(C)N)c1` (centres unmarked) [Compound 4, 2′-(1-Amino-ethyl)-5′-(pyridin-4-ylcarbamoyl)-biphenyl-3-carboxylic acid methyl ester], less than 100 nM.

For the compound `CCOC(=O)c1cccc(-c2cc(C(=O)Nc3ccncc3F)ccc2C(C)N)c1` (centres unmarked) [Compound 9, 2′-(1-Amino-ethyl)-5′-(3-fluoro-pyridin-4-ylcarbamoyl)-biphenyl-3-carboxylic acid ethyl ester], the IC50 was less than 100 nM. As for `CCCCCOC(=O)c1cccc(-c2cc(C(=O)Nc3ccncc3)ccc2C(C)N)c1` (centres unmarked) [Compound 16, 2′-(1-Amino-ethyl)-5′-(pyridin-4-ylcarbamoyl)-biphenyl-3-carboxylic acid pentyl ester], the figure is 100 to 1000 nM; as for `CCCCCCCOC(=O)c1cccc(-c2cc(C(=O)Nc3ccncc3)ccc2C(C)N)c1` (centres unmarked) [Compound 18, 2′-(1-Amino-ethyl)-5′-(pyridin-4-ylcarbamoyl)-biphenyl-3-carboxylic acid heptyl ester], 100 to 1000 nM; as for `CCCCCCCCOC(=O)c1cccc(-c2cc(C(=O)Nc3ccncc3)ccc2C(C)N)c1` (centres unmarked) [Compound 19, 2′-(1-Amino-ethyl)-5′-(pyridin-4-ylcarbamoyl)-biphenyl-3-carboxylic acid octyl ester], 100 to 1000 nM. As for `CCCCCCCCCCOC(=O)c1cccc(-c2cc(C(=O)Nc3ccncc3)ccc2C(C)N)c1` (centres unmarked) [Compound 20, 2′-(1-Amino-ethyl)-5′-(pyridin-4-ylcarbamoyl)-biphenyl-3-carboxylic acid decyl ester], the figure is 1000 to 10000 nM; as for `CCCCCCCCCCCOC(=O)c1cccc(-c2cc(C(=O)Nc3ccncc3)ccc2C(C)N)c1` (centres unmarked) [Compound 21, 2′-(1-Amino-ethyl)-5′-(pyridin-4-ylcarbamoyl)-biphenyl-3-carboxylic acid undecyl ester], 1000 to 10000 nM; as for `CCCCCCCCCCCCOC(=O)c1cccc(-c2cc(C(=O)Nc3ccncc3)ccc2C(C)N)c1` (centres unmarked) [Compound 22, 2′-(1-Amino-ethyl)-5′-(pyridin-4-ylcarbamoyl)-biphenyl-3-carboxylic acid dodecyl ester], 1000 to 10000 nM. As for `CCCCCCCCCCCCCOC(=O)c1cccc(-c2cc(C(=O)Nc3ccncc3)ccc2C(C)N)c1` (centres unmarked) [Compound 23, 2′-(1-Amino-ethyl)-5′-(pyridin-4-ylcarbamoyl)-biphenyl-3-carboxylic acid tridecyl ester], the figure is 1000 to 10000 nM; as for `CCCCCCCCCCCCCCCCOC(=O)c1cccc(-c2cc(C(=O)Nc3ccncc3)ccc2C(C)N)c1` (centres unmarked) [Compound 24, 2′-(1-Amino-ethyl)-5′-(pyridin-4-ylcarbamoyl)-biphenyl-3-carboxylic acid hexadecyl ester], 1000 to 10000 nM. `C=CCCCCCCCCOC(=O)c1cccc(-c2cc(C(=O)Nc3ccncc3)ccc2C(C)N)c1` (centres unmarked) [Compound 25, 2′-(1-Amino-ethyl)-5′-(pyridin-4-ylcarbamoyl)-biphenyl-3-carboxylic acid dec-9-enyl ester]: the IC50 was in the range of 100 to 1000 nM. As for `CC(C)OC(=O)c1cccc(-c2cc(C(=O)Nc3ccncc3)ccc2C(C)N)c1` (centres unmarked) [Compound 27, 2′-(1-Amino-ethyl)-5′-(pyridin-4-ylcarbamoyl)-biphenyl-3-carboxylic acid isopropyl ester], the figure is less than 100 nM; as for `CC(N)c1ccc(C(=O)Nc2ccncc2)cc1-c1cccc(C(=O)OC2CCCC2)c1` (centres unmarked) [Compound 33, 2′-(1-Amino-ethyl)-5′-(pyridin-4-ylcarbamoyl)-biphenyl-3-carboxylic acid cyclopentyl ester], less than 100 nM. On to `CC(N)c1ccc(C(=O)Nc2ccncc2)cc1-c1cccc(C(=O)OC2CCCCC2)c1` (centres unmarked) [Compound 34, 2′-(1-Amino-ethyl)-5′-(pyridin-4-ylcarbamoyl)-biphenyl-3-carboxylic acid cyclohexyl ester], for which the IC50 was less than 100 nM. As for `CC(N)c1ccc(C(=O)Nc2ccncc2)cc1-c1cccc(C(=O)OCC2CC2)c1` (centres unmarked) [Compound 36, 2′-(1-Amino-ethyl)-5′-(pyridin-4-ylcarbamoyl)-biphenyl-3-carboxylic acid cyclopropylmethyl ester], the figure is less than 100 nM. In the case of `CC(C)COC(=O)c1cccc(-c2cc(C(=O)Nc3ccncc3)ccc2C(C)N)c1` (centres unmarked) [Compound 40, 2′-(1-Amino-ethyl)-5′-(pyridin-4-ylcarbamoyl)-biphenyl-3-carboxylic acid isobutyl ester], the IC50 was less than 100 nM. Then `CC(N)c1ccc(C(=O)Nc2ccncc2)cc1-c1cccc(C(=O)OCC2COc3ccccc3O2)c1` (centres unmarked) [Compound 56, 2′-(1-Amino-ethyl)-5′-(pyridin-4-ylcarbamoyl)-biphenyl-3-carboxylic acid 2,3-dihydro-benzo[1,4]dioxin-2-ylmethyl ester], with 100 to 1000 nM.

With `CC#CCOC(=O)c1cccc(-c2cc(C(=O)Nc3ccncc3)ccc2C(C)N)c1` (centres unmarked) [Compound 59, 2′-(1-Amino-ethyl)-5′-(pyridin-4-ylcarbamoyl)-biphenyl-3-carboxylic acid but-2-ynyl ester], the IC50 is less than 100 nM. On to `CC(N)c1ccc(C(=O)Nc2ccncc2F)cc1-c1cccc(C(=O)OCCF)c1` (centres unmarked) [Compound 61, 2′-(1-Amino-ethyl)-5′-(3-fluoro-pyridin-4-ylcarbamoyl)-biphenyl-3-carboxylic acid 2-fluoro-ethyl ester], for which the IC50 was 100 to 1000 nM. Consider `CC(N)c1ccc(C(=O)Nc2ccncc2)cc1-c1cccc(C(=O)OCCCl)c1` (centres unmarked) [Compound 62, 2′-(1-Amino-ethyl)-5′-(pyridin-4-ylcarbamoyl)-biphenyl-3-carboxylic acid 2-chloro-ethyl ester], for which the IC50 was less than 100 nM. Then `CC(N)c1ccc(C(=O)Nc2ccncc2)cc1-c1cccc(C(=O)OCC(F)(F)F)c1` (centres unmarked) [Compound 63, 2′-(1-Amino-ethyl)-5′-(pyridin-4-ylcarbamoyl)-biphenyl-3-carboxylic acid 2,2,2-trifluoro-ethyl ester], with 100 to 1000 nM. As for `CC(N)c1ccc(C(=O)Nc2ccncc2)cc1-c1cccc(C(=O)OCC(Cl)(Cl)Cl)c1` (centres unmarked) [Compound 64, 2′-(1-Amino-ethyl)-5′-(pyridin-4-ylcarbamoyl)-biphenyl-3-carboxylic acid 2,2,2-trichloro-ethyl ester], the figure is less than 100 nM; as for `CC(N)c1ccc(C(=O)Nc2ccncc2F)cc1-c1cccc(C(=O)OCCO)c1` (centres unmarked) [Compound 67, 2′-(1-Amino-ethyl)-5′-(3-fluoro-pyridin-4-ylcarbamoyl)-biphenyl-3-carboxylic acid 2-hydroxy-ethyl ester], less than 100 nM. Then `CC(N)c1ccc(C(=O)Nc2ccncc2F)cc1-c1cccc(C(=O)OCCCO)c1` (centres unmarked) [Compound 68, 2′-(1-Amino-ethyl)-5′-(3-fluoro-pyridin-4-ylcarbamoyl)-biphenyl-3-carboxylic acid 3-hydroxy-propyl ester], with less than 100 nM. As for `CC(N)c1ccc(C(=O)Nc2ccncc2)cc1-c1cccc(C(=O)OCCCCCl)c1` (centres unmarked) [Compound 69, 2′-(1-Amino-ethyl)-5′-(pyridin-4-ylcarbamoyl)-biphenyl-3-carboxylic acid 4-chloro-butyl ester], the IC50 is less than 100 nM. In the case of `CC(N)c1ccc(C(=O)Nc2ccncc2)cc1-c1cccc(C(=O)Oc2ccc(F)cc2)c1` (centres unmarked) [Compound 72, 2′-(1-Amino-ethyl)-5′-(pyridin-4-ylcarbamoyl)-biphenyl-3-carboxylic acid 4-fluoro-phenyl ester], the IC50 was less than 100 nM. Consider `Cc1ccc(OC(=O)c2cccc(-c3cc(C(=O)Nc4ccncc4)ccc3C(C)N)c2)cc1` (centres unmarked) [Compound 73, 2′-(1-Amino-ethyl)-5′-(pyridin-4-ylcarbamoyl)-biphenyl-3-carboxylic acid p-tolyl ester], for which the IC50 was less than 100 nM. Regarding `COc1cccc(OC)c1OC(=O)c1cccc(-c2cc(C(=O)Nc3ccncc3)ccc2C(C)N)c1` (centres unmarked) [Compound 74, 2′-(1-Amino-ethyl)-5′-(pyridin-4-ylcarbamoyl)-biphenyl-3-carboxylic acid 2,6-dimethoxy-phenyl ester], the IC50 lay in the range of 100 to 1000 nM. Then `COc1cc(OC)cc(OC(=O)c2cccc(-c3cc(C(=O)Nc4ccncc4)ccc3C(C)N)c2)c1` (centres unmarked) [Compound 75, 2′-(1-Amino-ethyl)-5′-(pyridin-4-ylcarbamoyl)-biphenyl-3-carboxylic acid 3,5-dimethoxy-phenyl ester], with less than 100 nM; and `COc1cc(OC)cc(OC(=O)c2cccc(-c3cc(C(=O)Nc4ccncc4F)ccc3C(C)N)c2)c1` (centres unmarked) [Compound 76, 2′-(1-Amino-ethyl)-5′-(3-fluoro-pyridin-4-ylcarbamoyl)-biphenyl-3-carboxylic acid 3,5-dimethoxy-phenyl ester], with 100 to 1000 nM.
